The target of data set [1] is T1, Solute carrier family 12 member 5 (Homo sapiens, UniProt Q9H2X9).
T1 sequence (Q9H2X9 whole entry): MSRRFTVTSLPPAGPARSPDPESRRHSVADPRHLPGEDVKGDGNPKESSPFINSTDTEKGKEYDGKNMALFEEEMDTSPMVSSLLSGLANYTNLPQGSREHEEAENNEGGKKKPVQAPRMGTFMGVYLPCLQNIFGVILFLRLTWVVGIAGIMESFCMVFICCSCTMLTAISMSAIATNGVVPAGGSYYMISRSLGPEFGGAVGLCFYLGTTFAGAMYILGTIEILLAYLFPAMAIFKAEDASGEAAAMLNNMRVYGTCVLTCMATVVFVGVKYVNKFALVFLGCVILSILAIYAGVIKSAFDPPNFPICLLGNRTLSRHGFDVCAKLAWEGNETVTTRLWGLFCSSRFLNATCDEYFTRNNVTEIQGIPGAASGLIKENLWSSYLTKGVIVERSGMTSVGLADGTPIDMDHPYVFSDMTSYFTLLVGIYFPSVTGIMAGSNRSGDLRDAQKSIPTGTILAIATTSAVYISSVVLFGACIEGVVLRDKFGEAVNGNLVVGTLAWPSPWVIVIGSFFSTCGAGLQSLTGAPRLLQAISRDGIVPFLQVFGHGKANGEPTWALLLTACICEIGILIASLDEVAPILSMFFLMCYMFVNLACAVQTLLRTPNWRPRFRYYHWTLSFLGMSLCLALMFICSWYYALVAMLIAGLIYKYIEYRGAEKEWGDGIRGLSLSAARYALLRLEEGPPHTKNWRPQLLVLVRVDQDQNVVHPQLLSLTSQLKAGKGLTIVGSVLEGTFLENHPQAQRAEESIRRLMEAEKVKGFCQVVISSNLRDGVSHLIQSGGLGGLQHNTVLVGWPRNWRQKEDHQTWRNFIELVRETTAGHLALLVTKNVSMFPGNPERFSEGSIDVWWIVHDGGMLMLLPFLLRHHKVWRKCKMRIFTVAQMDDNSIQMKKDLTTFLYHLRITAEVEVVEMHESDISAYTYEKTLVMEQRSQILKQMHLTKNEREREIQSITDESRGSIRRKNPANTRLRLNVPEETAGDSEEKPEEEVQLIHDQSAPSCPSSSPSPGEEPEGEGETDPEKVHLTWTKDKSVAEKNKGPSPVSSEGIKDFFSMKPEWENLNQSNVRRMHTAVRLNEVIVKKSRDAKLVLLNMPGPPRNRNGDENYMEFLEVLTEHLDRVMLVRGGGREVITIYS
The experiment in a line: Antagonist activity at KCC2 expressed in human HEK293 cells assessed as decrease in Tl-stimulated fluorescence increase after 8 mins by fluorescence analysis. In kind it is functional, cell-based.

The target of data set [2] is T2, Solute carrier family 12 member 5 (Homo sapiens) (UniProt Q9H2X9).
T2 sequence (whole entry): T1 sequence (Q9H2X9 whole entry)
The experiment in a line: Antagonist activity at KCC2 expressed in human HEK293 cells assessed as decrease in Tl-stimulated fluorescence increase at 2 uM after 8 mins by fluorescence analysis. In kind it is functional, cell-based.

The target in the next data set is Cytochrome P450 3A4 (Homo sapiens, UniProt P08684). The experiment in a line: Inhibition of CYP3A4 in human liver microsomes. The class given is ADME, Microsome.
In the next data set the target is Cytochrome P450 2C9 (Homo sapiens, UniProt P11712). Put plainly: Inhibition of CYP2C9 in human liver microsomes. In kind it is ADME, Microsome.
Another data set has as its target T3, Cytochrome P450 1A2 (Homo sapiens, UniProt P05177).
T3 sequence (P05177 whole entry): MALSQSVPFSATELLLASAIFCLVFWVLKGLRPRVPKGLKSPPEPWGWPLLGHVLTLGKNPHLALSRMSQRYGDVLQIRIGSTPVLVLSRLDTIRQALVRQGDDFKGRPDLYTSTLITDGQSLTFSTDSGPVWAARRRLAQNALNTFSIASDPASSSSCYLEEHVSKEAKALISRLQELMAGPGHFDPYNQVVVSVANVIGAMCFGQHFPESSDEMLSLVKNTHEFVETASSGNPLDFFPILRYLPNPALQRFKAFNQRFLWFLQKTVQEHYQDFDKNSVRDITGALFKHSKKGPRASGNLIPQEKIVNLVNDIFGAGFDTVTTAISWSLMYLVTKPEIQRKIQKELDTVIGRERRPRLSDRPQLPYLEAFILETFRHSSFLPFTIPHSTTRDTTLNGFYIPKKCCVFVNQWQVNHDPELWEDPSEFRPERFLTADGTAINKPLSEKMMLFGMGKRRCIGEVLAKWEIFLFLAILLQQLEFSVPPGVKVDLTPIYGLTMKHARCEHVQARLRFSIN
Put plainly: Inhibition of CYP1A2 in human liver microsomes. The class given is ADME, Microsome.

The target in the next data set is Cytochrome P450 2D6 (Homo sapiens, UniProt P10635). The experiment in a line: Inhibition of CYP2D6 in human liver microsomes. The class given is ADME, Microsome.
Data set [3] deals with Plasma. The experiment in a line: Fraction unbound in rat plasma. The class given is ADME, cell-free.
The subject of data set [4] is Plasma. Put plainly: Fraction unbound in human plasma. In kind it is ADME, cell-free.
A short description of data set [5]: Clearance in rat at 1 mg/kg, iv. The following applies: in vivo. Further details: dose 1 mg/kg, route intravenous. The class given is ADME, organism-based.
Data set [6] is described as follows: Volume of distribution at steady state in rat at 1 mg/kg, iv. The class given is ADME, organism-based. Set-up: dose 1 mg/kg, route intravenous. The conditions noted are these: in vivo, read-out: Vdss.
Data set [7] in a line: Half life in rat at 1 mg/kg, iv. The class given is ADME, organism-based. Further details: dose 1 mg/kg, route intravenous. The conditions noted are these: in vivo.
For data set [8], the target named is T2, Solute carrier family 12 member 5 (Homo sapiens). Put plainly: Antagonist activity at KCC2 expressed in human HEK293 cells assessed as [86Rb] uptake after 30 mins by scintillation counting. The class given is functional, cell-based.
Data set [9] addresses T4, Solute carrier family 12 member 2 (Homo sapiens, UniProt P55011).
T4 sequence (P55011 whole entry): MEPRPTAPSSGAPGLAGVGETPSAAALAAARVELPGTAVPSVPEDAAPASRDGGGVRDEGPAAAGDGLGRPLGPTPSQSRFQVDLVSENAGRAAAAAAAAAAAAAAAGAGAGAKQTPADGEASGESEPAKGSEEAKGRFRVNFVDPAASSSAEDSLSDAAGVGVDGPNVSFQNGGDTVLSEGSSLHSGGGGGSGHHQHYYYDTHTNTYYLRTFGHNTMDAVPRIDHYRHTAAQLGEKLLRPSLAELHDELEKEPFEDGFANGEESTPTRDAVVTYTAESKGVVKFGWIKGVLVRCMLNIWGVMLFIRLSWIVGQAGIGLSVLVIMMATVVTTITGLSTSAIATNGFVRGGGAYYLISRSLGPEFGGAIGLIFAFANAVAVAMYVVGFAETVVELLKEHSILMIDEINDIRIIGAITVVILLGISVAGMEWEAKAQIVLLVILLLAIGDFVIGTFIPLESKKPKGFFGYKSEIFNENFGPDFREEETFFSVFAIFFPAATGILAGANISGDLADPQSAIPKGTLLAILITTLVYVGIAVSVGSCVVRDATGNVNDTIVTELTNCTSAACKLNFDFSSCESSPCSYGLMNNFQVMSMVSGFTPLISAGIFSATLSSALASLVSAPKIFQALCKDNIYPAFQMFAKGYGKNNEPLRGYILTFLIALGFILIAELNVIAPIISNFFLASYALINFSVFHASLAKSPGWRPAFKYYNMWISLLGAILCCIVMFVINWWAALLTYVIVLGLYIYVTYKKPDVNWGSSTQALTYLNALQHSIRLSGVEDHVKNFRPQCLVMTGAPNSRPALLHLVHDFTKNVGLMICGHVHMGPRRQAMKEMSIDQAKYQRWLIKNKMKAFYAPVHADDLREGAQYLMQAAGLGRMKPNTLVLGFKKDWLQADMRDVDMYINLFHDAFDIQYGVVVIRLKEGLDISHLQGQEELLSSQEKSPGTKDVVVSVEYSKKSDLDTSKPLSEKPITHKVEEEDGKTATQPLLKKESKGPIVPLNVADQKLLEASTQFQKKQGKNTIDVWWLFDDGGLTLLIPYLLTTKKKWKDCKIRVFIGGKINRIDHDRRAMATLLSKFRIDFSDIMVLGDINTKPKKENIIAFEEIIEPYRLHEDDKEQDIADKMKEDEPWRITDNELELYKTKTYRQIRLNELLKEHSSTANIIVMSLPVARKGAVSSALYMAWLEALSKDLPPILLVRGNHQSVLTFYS
The experiment in a line: Antagonist activity at […] expressed in human HEK293 cells assessed as [86Rb] uptake after 30 mins by scintillation counting. In kind it is functional, cell-based.

A short description of data set [10]: Metabolic stability of the compound in rat plasma assessed as compound remaining after 1 hr. In kind it is ADME, cell-free. The following applies: read-out: Stability.
Data set [11] addresses T5, Solute carrier family 12 member 2 (Homo sapiens) (UniProt P55011).
T5 sequence (whole entry): T4 sequence (P55011 whole entry)
Put plainly: Antagonist activity at […] expressed in human HEK293 cells assessed as [86Rb] uptake at 50 uM after 30 mins by scintillation counting. In kind it is functional, cell-based. Set-up: scale not given: the % may be the effect or the level left.

The next data set has as its target hERG (KCNH2) (Homo sapiens, UniProt Q12809). Put plainly: Inhibition of human Erg at 10 uM.
Data set [12] in a line: Inhibition of L-type calcium channel at 10 uM.

Molecules are shown by their SMILES. Calls of active or inactive are those of the source. The calls are words filed in the database; no cut-off is given here.

The values below come from ChEMBL document CHEMBL2046355 (Bioorg Med Chem Lett, 2012).

Cytochrome P450 2D6, sequence (P10635 whole entry): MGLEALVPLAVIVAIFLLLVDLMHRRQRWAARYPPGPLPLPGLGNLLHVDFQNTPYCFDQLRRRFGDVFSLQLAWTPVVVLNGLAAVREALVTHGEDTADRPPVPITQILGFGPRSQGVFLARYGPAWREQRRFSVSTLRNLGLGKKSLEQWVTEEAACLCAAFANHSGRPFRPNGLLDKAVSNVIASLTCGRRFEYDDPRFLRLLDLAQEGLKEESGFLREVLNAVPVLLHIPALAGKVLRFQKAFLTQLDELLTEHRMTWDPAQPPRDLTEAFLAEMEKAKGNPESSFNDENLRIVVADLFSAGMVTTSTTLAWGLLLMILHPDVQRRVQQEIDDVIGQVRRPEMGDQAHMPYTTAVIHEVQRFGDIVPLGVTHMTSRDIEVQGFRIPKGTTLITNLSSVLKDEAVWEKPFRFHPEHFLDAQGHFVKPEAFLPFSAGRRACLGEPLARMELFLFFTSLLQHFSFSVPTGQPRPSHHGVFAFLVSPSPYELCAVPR
Cytochrome P450 2C9, sequence (P11712 whole entry): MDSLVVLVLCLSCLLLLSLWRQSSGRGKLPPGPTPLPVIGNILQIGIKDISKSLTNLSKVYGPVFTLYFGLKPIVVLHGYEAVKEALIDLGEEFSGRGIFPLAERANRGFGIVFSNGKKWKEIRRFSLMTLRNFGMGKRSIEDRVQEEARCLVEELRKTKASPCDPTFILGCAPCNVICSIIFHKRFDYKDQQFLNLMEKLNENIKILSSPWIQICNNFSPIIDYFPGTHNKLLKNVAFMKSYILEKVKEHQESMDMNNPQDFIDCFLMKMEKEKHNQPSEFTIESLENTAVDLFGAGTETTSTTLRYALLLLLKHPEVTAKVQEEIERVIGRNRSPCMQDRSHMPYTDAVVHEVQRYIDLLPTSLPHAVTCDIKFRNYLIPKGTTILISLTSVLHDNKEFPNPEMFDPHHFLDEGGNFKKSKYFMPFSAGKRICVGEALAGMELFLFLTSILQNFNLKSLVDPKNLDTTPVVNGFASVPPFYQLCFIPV
hERG (KCNH2), sequence (Q12809 whole entry): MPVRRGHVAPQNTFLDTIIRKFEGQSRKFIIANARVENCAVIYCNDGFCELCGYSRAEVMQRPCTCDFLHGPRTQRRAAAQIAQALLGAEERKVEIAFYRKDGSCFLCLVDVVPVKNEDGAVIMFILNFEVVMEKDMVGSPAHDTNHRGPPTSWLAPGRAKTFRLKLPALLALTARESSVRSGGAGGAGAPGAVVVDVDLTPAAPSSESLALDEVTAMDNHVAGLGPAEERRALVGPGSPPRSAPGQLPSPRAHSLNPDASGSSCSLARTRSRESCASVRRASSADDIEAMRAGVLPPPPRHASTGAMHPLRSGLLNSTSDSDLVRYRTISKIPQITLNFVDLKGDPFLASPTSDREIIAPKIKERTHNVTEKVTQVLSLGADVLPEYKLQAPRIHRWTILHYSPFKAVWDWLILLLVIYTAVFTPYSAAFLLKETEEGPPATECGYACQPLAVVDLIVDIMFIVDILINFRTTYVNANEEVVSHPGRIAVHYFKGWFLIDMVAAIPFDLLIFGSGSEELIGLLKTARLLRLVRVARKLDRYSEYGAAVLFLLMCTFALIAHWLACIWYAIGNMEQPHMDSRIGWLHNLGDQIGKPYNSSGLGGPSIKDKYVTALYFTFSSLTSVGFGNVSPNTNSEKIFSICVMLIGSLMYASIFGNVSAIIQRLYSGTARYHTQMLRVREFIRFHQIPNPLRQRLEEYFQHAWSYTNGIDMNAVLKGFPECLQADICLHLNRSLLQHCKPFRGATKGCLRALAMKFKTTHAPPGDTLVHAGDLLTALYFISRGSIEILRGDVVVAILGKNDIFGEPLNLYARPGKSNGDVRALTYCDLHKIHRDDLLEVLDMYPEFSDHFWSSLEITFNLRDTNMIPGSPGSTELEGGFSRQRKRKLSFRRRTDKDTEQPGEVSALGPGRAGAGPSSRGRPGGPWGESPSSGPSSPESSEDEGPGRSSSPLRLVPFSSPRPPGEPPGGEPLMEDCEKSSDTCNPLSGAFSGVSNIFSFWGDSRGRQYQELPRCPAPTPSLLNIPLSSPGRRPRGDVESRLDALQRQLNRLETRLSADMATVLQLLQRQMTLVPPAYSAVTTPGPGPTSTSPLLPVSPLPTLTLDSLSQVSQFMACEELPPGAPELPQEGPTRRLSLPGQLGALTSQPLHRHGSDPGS
Cytochrome P450 3A4, sequence (P08684 whole entry): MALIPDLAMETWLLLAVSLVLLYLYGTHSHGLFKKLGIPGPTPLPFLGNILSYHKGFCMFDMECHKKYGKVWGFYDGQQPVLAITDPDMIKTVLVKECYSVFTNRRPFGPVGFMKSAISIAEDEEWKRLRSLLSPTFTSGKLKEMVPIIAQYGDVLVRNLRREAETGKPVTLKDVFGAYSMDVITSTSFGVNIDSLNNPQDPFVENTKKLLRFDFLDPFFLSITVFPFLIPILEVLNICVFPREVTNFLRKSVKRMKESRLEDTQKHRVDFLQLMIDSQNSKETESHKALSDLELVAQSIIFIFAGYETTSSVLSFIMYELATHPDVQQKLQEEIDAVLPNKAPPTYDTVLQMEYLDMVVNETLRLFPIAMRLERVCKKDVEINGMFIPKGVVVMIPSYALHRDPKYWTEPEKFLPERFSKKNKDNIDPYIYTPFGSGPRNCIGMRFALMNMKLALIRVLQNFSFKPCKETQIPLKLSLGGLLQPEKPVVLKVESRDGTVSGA

For the compound `Cc1csc(N(C)C(=O)CSc2ccc(-c3ccccc3)cn2)n1`, in [1], the 50% inhibitory concentration (IC50) came out at 2900 nM.

With `Cc1csc(N(C)C(=O)CSc2ccc(-c3ccccc3)nn2)n1`, in data set [2], the inhibition amounted to 82%. Further, the concentration for half-maximal inhibition (IC50) was 537 nM in data set [1]; greater than 30000 nM against Cytochrome P450 3A4; greater than 30000 nM against Cytochrome P450 2C9; greater than 30000 nM against Cytochrome P450 1A2; 24000 nM against Cytochrome P450 2D6; greater than 50000 nM in data set [9]. Besides, the Fu in the data set on Plasma [3] was 1%; in the data set on Plasma [4] it was 2%. Also, the clearance in data set [5] worked out at 185 mL/min/kg. Also, the Vd in data set [6] was 5 L/kg. The half-life in [7] came to 26 min. Further, the outcome in [8] was Active.

Consider `CCC(Sc1ccc(-c2ccccc2)nn1)C(=O)N(c1nc(C)cs1)C1CC1` (racemic) [listing 1 of 2 here], for which, in [2], the inhibition was 84%.

As for `CCC(Sc1ccc(-c2ccccc2)nn1)C(=O)N(C)c1nc(C)cs1` (racemic), the inhibition in data set [2] turned out to be 27%.

With `CCC(Sc1ccc(-c2ccccc2)nn1)C(=O)N(c1nc(C)cs1)C1CC1` (single isomer, unassigned; (-)), in [2], the inhibition was determined as 40%.

Regarding `Cc1csc(N(C)C(=O)C(C)Sc2ccc(-c3ccccc3)nn2)n1` (racemic), the inhibition in data set [2] was 46%.

With `Cc1csc(N(C(=O)CSc2ccc(-c3ccccc3)nn2)C2CC2)n1`, the IC50 is 61 nM in data set [1], greater than 30000 nM on Cytochrome P450 2C9, 20000 nM at Cytochrome P450 1A2 and greater than 30000 nM against Cytochrome P450 2D6. The compound also returned a clearance in [5] of 57 mL/min/kg. For the same compound, the Vd in data set [6] amounted to 0.4 L/kg. Also, in data set [7], the half-life worked out at 9 min. For the same compound, the result in data set [8] was Active. Also, in [10], the remaining at 1 h amounted to 6%.

Turning to `CCN(C(=O)C(C)Sc1ccc(-c2ccccc2)nn1)c1nc(C)cs1` (racemic), in data set [2], the inhibition stood at 57%.

For `O=C(Cn1cnc2c(nnn2Cc2ccccc2)c1=O)c1ccc(Cl)cc1`, in data set [1], the IC50 came to 1200 nM. Moreover, the Activity in data set [11] came out at 40%.

`Cc1csc(NC(=O)CSc2ccc(-c3ccccc3)cn2)n1`: the IC50 in [1] is 6900 nM.

Turning to `CCC(Sc1ccc(-c2ccccc2)nn1)C(=O)N(c1nc(C)cs1)C1CC1` (single isomer, unassigned; (+)), in [1], the IC50 was 385 nM.

Turning to `CCC(Sc1ccc(-c2ccccc2)nn1)C(=O)N(CC)c1nc(C)cs1` (racemic), the inhibition in [2] worked out at 45%.

Regarding `Cc1csc(N(C(=O)CSc2ccc(-c3ccccc3)nn2)C2CCCC2)n1`, in data set [1], the IC50 came to 1060 nM.

For the compound `Cc1csc(N(C(=O)CSc2ccc(-c3ccccc3)nn2)C2CCC2)n1`, in data set [1], the IC50 is 177 nM.

Consider `CCC(Sc1ccc(-c2ccccc2)nn1)C(=O)N(c1nc(C)cs1)C1CC1` (racemic) [listing 2 of 2 here], for which the concentration for half-maximal inhibition (IC50) in data set [1] was determined as 756 nM.

As for `Cc1csc(NC(=O)CSc2ccc(-c3ccccc3)nn2)n1`, the values for the IC50 in data set [1] and in data set [9] were 568 nM and greater than 50000 nM, respectively. This compound registered an inhibition at 10 µM against hERG (KCNH2) greater than 50%. In addition, the inhibition in [12] was greater than 50%.
